Experimental data reported in EP0631668B1, “DETERMINATION OF BINDING AFFINITY USING MAGNETICALLY-LABELED BINDING MEMBERS” (ABBOTT LABORATORIES, priority 1992, dated 1993).

Molecular target: T1, streptavidin-coated paramagnetic microparticle (Streptomyces avidinii, UniProt P22629)
T1 construct: purchased Advanced Magnetics, Cambridge, MA
Assay: Magnetically assisted avidin-biotin binding assay (competitive inhibition, balance readout)
Conditions: free biotin concentration 125 nanograms/milliliter (80 µl assayed); 12 milligrams at 0 nanograms/milliliter; Figure 6
Procedure: The following reagents and samples were used in a binding assay:
The magnetically-labeled reagent was a streptavidin-coated paramagnetic microparticle (Advanced Magnetics, Cambridge, MA; average one micron in diameter, with 5x10^8 particles per mg, supplied as a 5 mg/ml suspension).
Incubation was continued at 37° C for an additional 45 minutes. The wells were then emptied and washed with PBS using a wash bottle.
The magnetically-labeled reagent was first combined with the test sample, thereby forming a reaction mixture which was incubated for one hour at 37° C. […] The unbound magnetically-labeled reagent was removed from the reaction mixture by means of magnetic attraction.

T1 sequence (P22629 25-183): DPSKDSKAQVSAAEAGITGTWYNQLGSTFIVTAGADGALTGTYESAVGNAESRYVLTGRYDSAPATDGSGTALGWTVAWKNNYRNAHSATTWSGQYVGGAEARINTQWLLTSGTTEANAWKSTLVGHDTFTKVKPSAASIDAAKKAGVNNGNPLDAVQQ

For `O=C(O)CCCC[C@@H]1SC[C@@H]2NC(=O)N[C@@H]21` [biotin], the “force change detected by the balance means” value was “zero”.
